Assay results taken from US20250122202A1, “EGFR INHIBITOR, PREPARATION METHOD THEREFOR AND USE THEREOF” (SHANDONG NEW TIME PHARMACEUTICAL CO., LTD., priority 2021, published 2025).

Legend:
PC-9 EGFR-Del19 = assay: Cell proliferation inhibition experiment (CCK-8), PC-9; type: cell-based; settings: Homo sapiens, 72 h
Excerpt: Inhibition rate %=[(A0−AS)/(A0−AC)]×100%.

[1] = system: KC-1474 cell subcutaneous transplantation tumor; assay: In-vivo drug efficacy study, KC-1474 cell subcutaneous transplantation tumor in NPG mice; settings: for tumor volume inhibition rate (TGITV) / tumor weight inhibition rate (TGITW): 39 days, end of experiment
Experimental: Female SPF NPG mice weighed 19-22 g were used. The experimental animals were provided by Beijing Vitalstar Biotechnology Co., Ltd. with the experimental animal production license number SCXK (Jing) 2019-0002 and the experimental animal quality certification number of No.110341211100087928.
KC-1474 cells used in the experiment were cultured in a 5% CO2 37° C. incubator with an RPMI1640 medium supplemented with 10% FBS and […] of puromycin. Before the cells were continuously cultured for ten passages, the KC-1474 cells were adjusted to a concentration of 1×10^8/mL, and mixed with Matrigel at a volume ratio of 1:1, and the mixture was inoculated subcutaneously into the right lateral thorax of the NPG mice at 0.1 mL/mouse with 5×10^6 cells per mouse.
When the mean tumor volume of the mice reached about 100-130 mm^3, according to the tumor volume and weight, all the mice were randomly divided into […] group respectively: a model group (V), an example 60 compound oral administration group (po), an example 60 compound intravenous injection low-dose group (L), and an example 60 compound intravenous injection medium-dose group (M). The mice in all the groups were administrated once daily. The administration started on the day of the grouping and continued for 39 days. The mice in the model group were intravenously injected with the same volume of a solvent. The solvent was prepared by adding 2 g of polyethylene glycol-15 hydroxystearate (HS15) into 4 mL of dimethyl sulfoxide (DMSO), then adding 40 mL of purified water, and filtering an obtained mixture by using a 0.22-μm sterilizing filter. At the end of the experiment or the humane endpoint, the animals were euthanized using sodium pentobarbital for anesthesia.
Tumor volume was measured once during the grouping, once per week after the grouping using a vernier caliper, and before the euthanasia. A method for measuring the tumor volume was measuring the long diameter and the short diameter of a tumor using the vernier caliper.
The tumor volume was calculated by the formula: tumor volume=0.5×long diameter×short diameter^2.
(Ti: mean tumor volume of mice in the treatment groups on day i of the administration and T0: mean tumor volume of the mice in the treatment group on day 0 of the administration; and Vi: mean tumor volume of the mice in the model group on day i of the administration and V0: mean tumor volume of the mice in the model group on day 0 of the administration).
At the end of the experiment, the tumor tissue was stripped after the animals were euthanized, the tumor weight was weighed, and the tumor weight inhibition rate was calculated according to the following formula:
TGITW(%)=(Wmodel group−Wtreatment group)/Wmodel group×100%, wherein the W means tumor weight.
Original data was analyzed and the results were expressed as mean±standard deviation (mean±SD). At the same time, the tumor volume and the tumor weight were subjected to statistical analysis. AP<0.05 was considered to be a significant difference.

IC50 (PC-9 EGFR-Del19): < 0.1 µM
animal condition during the administration and observation ([1]; all groups, qd for 39 days): no diarrhea, vomiting, or rash
SMILES: CN1CCN(c2ccc(Nc3nc(N[C@H]4CC[C@@H](CO)CC4)c4c(C(=O)c5ccc(F)cc5)c[nH]c4n3)cc2)CC1 [Example 60]
tumor volume inhibition rate (TGITV) ([1]; L group, 3 mg/kg qd iv): 31%
tumor weight inhibition rate (TGITW) ([1]; L group, 3 mg/kg qd iv): 22%
tumor volume inhibition rate (TGITV) ([1]; M group, 10 mg/kg qd iv): 57%
tumor weight inhibition rate (TGITW) ([1]; M group, 10 mg/kg qd iv): 61%
tumor volume inhibition rate (TGITV) ([1]; po group, 20 mg/kg qd po): 28%
tumor weight inhibition rate (TGITW) ([1]; po group, 20 mg/kg qd po): 21%
